Test results taken from ChEMBL document CHEMBL1777784, “New antiplasmodial indole alkaloids from Hunteria zeylanica” (Bioorg Med Chem Lett, 2011).

What was measured:
Plasmodium falciparum = test: Antiplasmodial activity against Plasmodium falciparum 3D7 by Geimsa staining method; format: functional, organism-based
HL-60 = test: Cytotoxicity against human HL60 cells; format: cell-based
[1] = Selectivity index, ratio of IC50 for Plasmodium falciparum 3D7 to IC50 for human HL60 cells; set-up: species or system HL-60

Row | IC50 (Plasmodium falciparum; Plasmodium falciparum, 3D7) | SMILES | IC50 (Plasmodium falciparum) | IC50 (HL-60) | Ratio IC50 [1]
1 |  | C/C=C1/C[N@@+]2(C)CCc3c([nH]c4ccc(O)c([C@@H]5C[C@@]6(CC)CCCN7CCc8c(n5c5ccccc85)[C@H]76)c34)[C@H]2C[C@@H]1CCO (stereo in doubt; 4) [BISNICALATERINE B] | 1.13 µM | > 50 µM | >44
2 |  | C/C=C1/C[N@@+]2(C)CCc3c([nH]c4ccc(O)c([C@@H]5C[C@@]6(CC)CCCN7CCc8c(n5c5ccccc85)[C@H]76)c34)[C@H]2C[C@@H]1CCO (stereo in doubt; 5) [BISNICALATERINE B] | 0.05 µM |  | >1000
3 | 4.36 µM | C/C=C1/CN(C)[C@H]2Cc3c([nH]c4ccccc34)[C@H](n3c4c(c5ccccc53)C[C@H]3[C@@H](C(=O)OC)[C@H](C[C@H]4O)/C(=C\C)CN3C)C[C@H]1[C@@H]2C(=O)OC [BISNICALATERINE A] |  | 16.2 µM | 3.7
4 | 0.11 µM | CCc1c[n+]2ccc3c4ccccc4[nH]c3c2cc1CCO [NICALATERINE A] |  | > 50 µM | >450

Row | SMILES | IC50 (Plasmodium falciparum; Plasmodium falciparum, 3D7) | IC50 (Plasmodium falciparum) | IC50 (HL-60) | Ratio IC50 [1]
5 | C/C=C1/C[N@@+]2(C)CCc3c([nH]c4ccc(O)c(C5=C[C@@]6(CC)CCCN7CCc8c(n5c5ccccc85)[C@H]76)c34)[C@H]2C[C@@H]1CCO [BISNICALATERINE D] | > 50 µM |  | > 50 µM | 
